Source: ChEMBL document CHEMBL3585308, “Discovery and Modification of in Vivo Active Nrf2 Activators with 1,2,4-Oxadiazole Core: Hits Identification and Structure-Activity Relationship Study” (J Med Chem, 2015)
The source made the active and inactive calls.

Columns and labels:
[1] = molecular target: T1, Nuclear factor erythroid 2-related factor 2 (Homo sapiens) (UniProt Q16236); test: Activation of Nrf2 in human HCT116 cells assessed as upregulation of HO-1 gene expression at 20 uM after 8 hrs by qRT-PCR analysis in presence of siRNA relative to siRNA nontreated control; format: cell-based; details: HCT-116
T1 sequence (whole entry): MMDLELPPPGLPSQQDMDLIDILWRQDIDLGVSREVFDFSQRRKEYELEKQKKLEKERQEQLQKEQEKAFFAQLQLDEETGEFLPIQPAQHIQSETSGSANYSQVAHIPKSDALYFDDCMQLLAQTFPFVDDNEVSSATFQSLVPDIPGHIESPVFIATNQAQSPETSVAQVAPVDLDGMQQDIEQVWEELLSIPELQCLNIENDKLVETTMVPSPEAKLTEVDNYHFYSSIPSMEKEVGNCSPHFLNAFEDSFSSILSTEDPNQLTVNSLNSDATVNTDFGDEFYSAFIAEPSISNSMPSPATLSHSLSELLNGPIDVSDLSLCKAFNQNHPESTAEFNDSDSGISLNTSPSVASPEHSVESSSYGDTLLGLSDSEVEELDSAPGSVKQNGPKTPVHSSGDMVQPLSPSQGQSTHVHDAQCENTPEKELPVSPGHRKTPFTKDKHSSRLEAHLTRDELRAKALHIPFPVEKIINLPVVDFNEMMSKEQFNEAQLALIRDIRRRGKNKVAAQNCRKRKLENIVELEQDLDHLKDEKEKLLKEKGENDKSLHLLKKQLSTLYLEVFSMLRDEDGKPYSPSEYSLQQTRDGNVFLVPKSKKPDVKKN

[2] = Dissociation constant, pKa of the compound by potentiometric titration method; format: physicochemical
Mus musculus [3] = test: Antiinflammatory activity in C57BL/6 mouse assessed as prevention of LPS-induced morphological changes in lung at 10 to 80 mg/kg/day, ip pretreated for 48 hrs followed by LPS challenge measured after 5 hrs; format: functional, organism-based
[4] = molecular target: T1, Nuclear factor erythroid 2-related factor 2 (Homo sapiens); test: Activation of Nrf2 in human HCT116 cells assessed as upregulation of HO-1 expression after 8 hrs by Western blot analysis; format: cell-based; details: HCT-116
[5] = molecular target: T1, Nuclear factor erythroid 2-related factor 2 (Homo sapiens); test: Induction of Nrf2 translocation from cytoplasm to nucleus in human HCT116 cells at 20 uM after 4 hrs by Western blot analysis; format: cell-based; details: HCT-116
[6] = molecular target: T1, Nuclear factor erythroid 2-related factor 2 (Homo sapiens); test: Activation of Nrf2 in human HCT116 cells assessed as upregulation of NQO1 gene expression at 20 uM after 8 hrs by qRT-PCR analysis in presence of siRNA relative to siRNA nontreated control; format: cell-based; details: HCT-116
Mus musculus [7] = test: In vivo activation of Nrf2 in LPS-stimulated ip dosed C57BL/6 mouse lung pretreated for 48 hrs followed by LPS challenge measured after 5 hrs by Western blot analysis; format: functional, organism-based
Mus musculus [8] = test: Antiinflammatory activity in ip dosed C57BL/6 mouse assessed as reduction of LPS-induced TNF-alpha level in serum pretreated for 48 hrs followed by LPS challenge measured after 5 hrs by ELISA relative to LPS-treated control; format: functional, organism-based
[9] = molecular target: T1, Nuclear factor erythroid 2-related factor 2 (Homo sapiens); test: Induction of Nrf2 translocation from cytoplasm to nucleus in human HCT116 cells after 12 hrs by DyLight 488 and DAPI staining-based laser scanning confocal microscopic analysis; format: cell-based; details: HCT-116
[10] = Permeability of the compound at pH 7.4 by PAMPA; format: physicochemical; details: read-out: permeability
HCT-116 = test: Cytotoxicity against human HCT116 cells assessed as reduction of cell proliferation at 80 uM after 24 hrs by MTT assay; format: cell-based; details: hct-116, 24 h
Mus musculus [11] = test: Antiinflammatory activity in ip dosed C57BL/6 mouse assessed as reduction of LPS-induced IL-6 level in serum pretreated for 48 hrs followed by LPS challenge measured after 5 hrs by ELISA relative to LPS-treated control; format: functional, organism-based
[12] = Intrinsic aqueous solubility of the compound by potentiometric titration method; format: physicochemical; details: read-out: Intrinsic_solubility
[13] = molecular target: T1, Nuclear factor erythroid 2-related factor 2 (Homo sapiens); test: Activation of Nrf2 in human HCT116 cells assessed as upregulation of GCLM gene expression at 20 uM after 8 hrs by qRT-PCR analysis in presence of siRNA relative to siRNA nontreated control; format: cell-based; details: HCT-116
[14] = molecular target: T1, Nuclear factor erythroid 2-related factor 2 (Homo sapiens); test: Activation of Nrf2 in human HepG2-ARE-C8 cells assessed as upregulation of ARE level after 12 hrs by luciferase reporter gene assay; format: cell-based
[15] = molecular target: T1, Nuclear factor erythroid 2-related factor 2 (Homo sapiens); test: Activation of Nrf2 in human HCT116 cells assessed as upregulation of NQO1 gene expression measured at 4 hrs by qRT-PCR analysis; format: cell-based; details: HCT-116
Mus musculus [16] = test: Antiinflammatory activity in ip dosed C57BL/6 mouse assessed as reduction of LPS-induced IL-12 level in serum pretreated for 48 hrs followed by LPS challenge measured after 5 hrs by ELISA relative to LPS-treated control; format: functional, organism-based
[17] = molecular target: T1, Nuclear factor erythroid 2-related factor 2 (Homo sapiens); test: Activation of Nrf2 in human HCT116 cells assessed as upregulation of NQO1 expression after 8 hrs by Western blot analysis; format: cell-based; details: HCT-116
[18] = molecular target: T1, Nuclear factor erythroid 2-related factor 2 (Homo sapiens); test: Induction of Nrf2 phosphorylation at S40 in cytoplasm of human HCT116 cells at 20 uM after 4 hrs by Western blot analysis; format: cell-based; details: HCT-116
[19] = molecular target: T1, Nuclear factor erythroid 2-related factor 2 (Homo sapiens); test: Activation of Nrf2 in human HCT116 cells measured at 4 hrs by qRT-PCR analysis; format: cell-based; details: HCT-116
Mus musculus [20] = test: Antiinflammatory activity in ip dosed C57BL/6 mouse assessed as reduction of LPS-induced IFN-gamma level in serum pretreated for 48 hrs followed by LPS challenge measured after 5 hrs by ELISA relative to LPS-treated control; format: functional, organism-based
Mus musculus [21] = test: Antiinflammatory activity in ip dosed C57BL/6 mouse assessed as inhibition of LPS-induced IL-6 expression in lung pretreated for 48 hrs followed by LPS challenge measured after 5 hrs by immunohistochemical analysis; format: functional, organism-based
[22] = molecular target: T1, Nuclear factor erythroid 2-related factor 2 (Homo sapiens); test: Induction of phosphorylated Nrf2 at S40 translocation from cytoplasm to nucleus in human HCT116 cells at 20 uM after 4 hrs by Western blot analysis; format: cell-based; details: HCT-116
Mus musculus [23] = test: Antiinflammatory activity in ip dosed C57BL/6 mouse assessed as reduction of LPS-induced IL-17 level in serum pretreated for 48 hrs followed by LPS challenge measured after 5 hrs by ELISA relative to LPS-treated control; format: functional, organism-based
[24] = Lipophilicity, log D of the compound at pH 7.4 by potentiometric titration method; format: physicochemical; details: buffer
[25] = molecular target: T1, Nuclear factor erythroid 2-related factor 2 (Homo sapiens); test: Activation of Nrf2 in human HCT116 cells assessed as upregulation of GCS expression at 10 uM after 1 hr by Western blot analysis; format: cell-based; details: HCT-116
Mus musculus [26] = test: In vivo activation of Nrf2 in LPS-stimulated C57BL/6 mouse lung at 10 to 80 mg/kg/day, ip pretreated for 48 hrs followed by LPS challenge measured after 5 hrs by DAPI staining-based laser scanning confocal microscopic analysis; format: functional, organism-based
[27] = molecular target: T1, Nuclear factor erythroid 2-related factor 2 (Homo sapiens); test: Activation of Nrf2 in human HCT116 cells assessed as upregulation of HO-1 gene expression measured at 4 hrs by qRT-PCR analysis; format: cell-based; details: HCT-116
[28] = molecular target: T1, Nuclear factor erythroid 2-related factor 2 (Homo sapiens); test: Activation of Nrf2 in human HCT116 cells assessed as upregulation of GCLM gene expression measured at 4 hrs by qRT-PCR analysis; format: cell-based; details: HCT-116
[29] = molecular target: T1, Nuclear factor erythroid 2-related factor 2 (Homo sapiens); test: Activation of Nrf2 in human HCT116 cells at 20 uM after 8 hrs by qRT-PCR analysis in presence of siRNA relative to siRNA nontreated control; format: cell-based; details: HCT-116
Mus musculus [30] = test: Toxicity in C57BL/6 mouse assessed as effect on body weight at 10 to 80 mg/kg/day, ip measured after 3 days; format: organism-based; details: in vivo, 72 h
Mus musculus [31] = test: Antiinflammatory activity in C57BL/6 mouse assessed as reduction of LPS-induced IFN-gamma level in serum at 10 mg/kg/day pretreated for 48 hrs followed by LPS challenge measured after 5 hrs by ELISA; format: functional, organism-based
Mus musculus [32] = test: Antiinflammatory activity in C57BL/6 mouse assessed as prevention of LPS-induced morphological changes in lung at 10 mg/kg/day pretreated for 48 hrs followed by LPS challenge measured after 5 hrs; format: functional, organism-based
Mus musculus [33] = test: Antiinflammatory activity in C57BL/6 mouse assessed as reduction of LPS-induced IL-6 level in serum at 10 mg/kg/day pretreated for 48 hrs followed by LPS challenge measured after 5 hrs by ELISA; format: functional, organism-based
Mus musculus [34] = test: In vivo activation of Nrf2 in LPS-stimulated C57BL/6 mouse lung at 10 mg/kg/day pretreated for 48 hrs followed by LPS challenge measured after 5 hrs by DAPI staining-based laser scanning confocal microscopic analysis; format: functional, organism-based
Mus musculus [35] = test: Antiinflammatory activity in C57BL/6 mouse assessed as reduction of LPS-induced TNF-alpha level in serum at 10 mg/kg/day pretreated for 48 hrs followed by LPS challenge measured after 5 hrs by ELISA; format: functional, organism-based
Mus musculus [36] = test: Antiinflammatory activity in C57BL/6 mouse assessed as suppression of LPS-induced IL-6 expression in lung at 10 mg/kg/day pretreated for 48 hrs followed by LPS challenge measured after 5 hrs by immunohistochemical analysis; format: functional, organism-based
Mus musculus [37] = test: Antiinflammatory activity in C57BL/6 mouse assessed as reduction of LPS-induced IL-12 level in serum at 10 mg/kg/day pretreated for 48 hrs followed by LPS challenge measured after 5 hrs by ELISA; format: functional, organism-based
Mus musculus [38] = test: Toxicity in C57BL/6 mouse assessed as effect on body weight at 10 mg/kg/day measured after 3 days; format: organism-based; details: in vivo, 72 h
Mus musculus [39] = test: Antiinflammatory activity in C57BL/6 mouse assessed as reduction of LPS-induced IL-17 level in serum at 10 mg/kg/day pretreated for 48 hrs followed by LPS challenge measured after 5 hrs by ELISA; format: functional, organism-based

Fc1ccc(-c2nc(-c3ccc4nc[nH]c4c3)no2)cc1
Non-toxic: Activity (HCT-116) | Activity (Mus musculus [30])
3.37: logD [24]
active: Activity [1] | Activity (Mus musculus [3]) | Activity [4] Dose-dependent effect | Activity [5] | Activity [6] | Activity (Mus musculus [7]) Dose-dependent effect | Activity (Mus musculus [8]) Dose-dependent effect | Activity [9] Dose-dependent effect | Activity (Mus musculus [11]) Dose-dependent effect | Activity [13] | Activity [14] Dose-dependent effect | Activity [15] Dose-dependent effect | Activity (Mus musculus [16]) Dose-dependent effect | Activity [17] Dose-dependent effect | Activity [18] | Activity [19] Dose-dependent effect | Activity (Mus musculus [20]) Dose-dependent effect | inhibition (Mus musculus [21]) Dose-dependent effect | Activity [22] | Activity (Mus musculus [23]) Dose-dependent effect | Activity [25] | Activity (Mus musculus [26]) | Activity [27] Dose-dependent effect | Activity [28] Dose-dependent effect | Activity [29]
19.6 ×10⁻⁶ cm/s: Papp [10]
3.57: pKa [2]
66.9 µM: solubility [12]

C[C@@H]1C[C@H]2[C@@H]3CCC4=CC(=O)C=C[C@]4(C)[C@@]3(F)[C@@H](O)C[C@]2(C)[C@@]1(O)C(=O)CO [DEXAMETHASONE]
active: Activity (Mus musculus [31]) | Activity (Mus musculus [32]) | Activity (Mus musculus [33]) | Activity (Mus musculus [34]) | Activity (Mus musculus [35]) | Activity (Mus musculus [36]) | Activity (Mus musculus [37]) | Activity (Mus musculus [39])
Non-toxic: Activity (Mus musculus [38])
